Reference: the NIST ThermoML archive (doi:10.1016/j.jct.2004.12.003)
Numbers after ± are expanded uncertainties.

Assays:
[1] = Liquid; for mass density: 293.15 K, 101.33 kPa
[2] = refractive index (Na D-line) (dimensionless); details: 293.15 K; 101.33 kPa; Liquid; Standard Abbe refractometry

SMILES | mass density [1] [kg/m3] | Normal boiling temperature [1] [°C] | refractive index [2]
CCC(=O)O [propanoic acid] | 992.7 ± 0.5 | 141.0 ± 0.08 | 1.3811 ± 0.0011
COC(=O)c1ccccc1C(=O)OC [dimethyl 1,2-benzenedicarboxylate] | 1191 ± 0.8 | 283.93 ± 0.08 | 1.514 ± 0.0011
